Legend:
Type in all cases: in vivo
[1] = tested on: wild oat (Avena fatua); assay: Test D postemergence plant response; settings: for Plant response rating (scale 0 to 100), Oat, Wild: 16 g ai/ha; for Plant response rating, Oat, Wild: 125 g ai/ha
Outline: (§1)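 The formulated test chemicals were applied over the foliage of young potted plants (2 to 18 cm tall), which were then held under greenhouse conditions. Between days 13 and 15 each species was rated by eye versus controls, from 0 for no effect up to 100 for complete control.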

[2] = tested on: kochia (Kochia scoparia); assay: Test D postemergence plant response; settings: for Plant response rating (scale 0 to 100), Kochia: 16 g ai/ha; for Kochia plant response rating: 31 g ai/ha, scale 0 to 100 (0 no effect, 100 complete control); for Plant response rating, Kochia: scale 0 to 100, 0 no effect, 100 complete control
Outline: as §1

[3] = tested on: chickweed (common chickweed, Stellaria media); assay: Test D postemergence plant response; settings: for Plant response rating (scale 0 to 100), Chickweed: 16 g ai/ha; for Chickweed plant response rating: 31 g ai/ha, scale 0 to 100 (0 no effect, 100 complete control); for Plant response rating, Chickweed: scale 0 to 100, 0 no effect, 100 complete control
Outline: as §1

[4] = tested on: corn (Zea mays); assay: Test B pre-/postemergence plant response
Outline: (§2)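 Evaluation is visual, about 10 days after application, rating injury from 0 (none) to 100 (complete control) relative to untreated controls. Application was a preemergence soil spray on seeded pots or a postemergence spray on one- to two-leaf plants.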

[5] = tested on: giant foxtail (Setaria faberii); assay: Test B pre-/postemergence plant response
Outline: as §2

[6] = tested on: pigweed (Amaranthus retroflexus); assay: Test B pre-/postemergence plant response
Outline: as §2

[7] = tested on: kochia (Kochia scoparia); assay: Test B pre-/postemergence plant response
Outline: as §2

[8] = tested on: barnyardgrass (Echinochloa crus-galli); assay: Test B pre-/postemergence plant response
Outline: as §2

[9] = tested on: ragweed (common ragweed, Ambrosia elatior); assay: Test B pre-/postemergence plant response
Outline: as §2

[10] = tested on: wheat (Triticum aestivum); assay: Test B pre-/postemergence plant response
Outline: as §2

[11] = tested on: Italian ryegrass (Lolium multiflorum); assay: Test B pre-/postemergence plant response
Outline: as §2

[12] = tested on: ducksalad (Heteranthera limosa); assay: Test C flooded paddy test plant response; settings: Flood, 250 g ai/ha; scale of 0 to 100 where 0 is no effect and 100 is complete control; 13 to 15 days
Outline: (§3)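 Two-leaf stage → flood to 3 cm → compound into water → hold depth, greenhouse 13–15 d → visual score vs controls (0 none, 100 complete control).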

[13] = tested on: small-flower umbrella sedge (Cyperus difformis); assay: Test C flooded paddy test plant response; settings: Flood, 250 g ai/ha; scale of 0 to 100 where 0 is no effect and 100 is complete control; 13 to 15 days
Outline: as §3

[14] = tested on: rice (Oryza sativa); assay: Test C flooded paddy test plant response; settings: Flood, 250 g ai/ha; scale of 0 to 100 where 0 is no effect and 100 is complete control; 13 to 15 days
Outline: as §3

[15] = tested on: barnyardgrass (Echinochloa crus-galli); assay: Test C flooded paddy test plant response; settings: Flood, 250 g ai/ha; scale of 0 to 100 where 0 is no effect and 100 is complete control; 13 to 15 days
Outline: as §3

[16] = tested on: galium (catchweed bedstraw, Galium aparine); assay: Test B postemergence plant response
Outline: (§4)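 Values are visual control ratings (0 to 100) recorded approximately 10 days after postemergence application to greenhouse-grown plants of 2 to 10 cm, one- to two-leaf stage, each judged against untreated controls.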

[17] = tested on: blackgrass (Alopecurus myosuroides); assay: Test B postemergence plant response
Outline: as §4

[18] = 31 g ai/ha, scale 0 to 100 (0 no effect, 100 complete control)
[19] = 62 g ai/ha, scale 0 to 100, 0 no effect, 100 complete control
[20] = scale 0 to 100, 0 no effect, 100 complete control
[21] = 125 g ai/ha, postemergence, 0 to 100 scale, 0 no effect, 100 complete control
[22] = Postemergence, 500 g ai/ha, 0 to 100 scale (0 no effect, 100 complete control)
[23] = Preemergence, 125 g ai/ha, 0 to 100 scale (0 no effect, 100 complete control)
[24] = Preemergence, 500 g ai/ha, 0 to 100 scale where 0 is no effect and 100 is complete control

Clc1cnc(Oc2ccccc2-c2cc(C3CC3)on2)nc1 [Compound 183]
65: Plant response rating, Chickweed ([3]; 62 g ai/ha)
20: Plant response rating, Ragweed [9, 21] | Ryegrass, Italian plant response rating [11, 23]
80: Plant response rating, Foxtail, Giant [5, 22] | Foxtail, Giant plant response rating [5, 23] | Kochia plant response rating [7, 23] | Plant response rating, Barnyardgrass [8, 24] | Plant response rating, Blackgrass [17, 21]
30: Plant response rating (scale 0 to 100), Chickweed [3] | Plant response rating, Corn [4, 22] | Barnyardgrass plant response rating [8, 23] | Plant response rating, Ragweed [9, 22]
75: Sedge, Umbrella plant response rating [13]
60: Chickweed plant response rating [3] | Plant response rating, Foxtail, Giant [5, 21] | Plant response rating, Ragweed [9, 24] | Plant response rating, Wheat [10, 22]
40: Plant response rating, Barnyardgrass [8, 21] | Plant response rating, Ryegrass, Italian [11, 21] | Plant response rating, Ryegrass, Italian [11, 24]
0: Plant response rating (scale 0 to 100), Oat, Wild [1] | Ragweed plant response rating [9, 23] | Rice plant response rating [14] | Barnyardgrass plant response rating [15]
70: Plant response rating, Chickweed ([3]; 125 g ai/ha) | Plant response rating, Barnyardgrass [8, 22] | Plant response rating, Ryegrass, Italian [11, 22]
85: Ducksalad plant response rating [12]
100: Plant response rating, Kochia ([2]; 62 g ai/ha) | Plant response rating, Kochia ([2]; 125 g ai/ha) | Plant response rating, Pigweed [6, 21] | Plant response rating, Pigweed [6, 22] | Plant response rating, Pigweed [6, 24] | Plant response rating, Kochia [7, 21] | Plant response rating, Kochia [7, 22] | Plant response rating, Kochia [7, 24] | Plant response rating, Galium [16, 21] | Plant response rating, Galium [16, 22]
25: Plant response rating, Oat, Wild [1, 20]
5: Oat, Wild plant response rating [1, 18]
10: Oat, Wild plant response rating [1, 19] | Plant response rating, Corn [4, 21] | Plant response rating, Wheat [10, 21]
95: Kochia plant response rating [2]
90: Plant response rating (scale 0 to 100), Kochia [2] | Plant response rating, Foxtail, Giant [5, 24] | Pigweed plant response rating [6, 23] | Plant response rating, Blackgrass [17, 22]

Clc1cnc(Oc2ccccc2-c2ccon2)nc1 [Compound 185]
50: Plant response rating, Blackgrass [17, 22]
100: Plant response rating, Pigweed [6, 22] | Plant response rating, Pigweed [6, 24] | Plant response rating, Kochia [7, 22] | Plant response rating, Kochia [7, 24] | Plant response rating, Ragweed [9, 22]
40: Kochia plant response rating [7, 23] | Plant response rating, Barnyardgrass [8, 22] | Plant response rating, Galium [16, 21]
20: Barnyardgrass plant response rating [8, 23]
10: Plant response rating, Corn [4, 22] | Plant response rating, Foxtail, Giant [5, 21] | Plant response rating, Barnyardgrass [8, 21] | Ragweed plant response rating [9, 23]
30: Plant response rating, Kochia ([2]; 125 g ai/ha) | Foxtail, Giant plant response rating [5, 23]
70: Plant response rating, Foxtail, Giant [5, 22] | Plant response rating, Barnyardgrass [8, 24] | Plant response rating, Ragweed [9, 21] | Plant response rating, Galium [16, 22]
90: Plant response rating, Foxtail, Giant [5, 24] | Plant response rating, Pigweed [6, 21] | Pigweed plant response rating [6, 23] | Plant response rating, Kochia [7, 21] | Plant response rating, Ragweed [9, 24]
5: Plant response rating, Oat, Wild [1, 20] | Plant response rating, Kochia ([2]; 62 g ai/ha) | Plant response rating, Chickweed ([3]; 62 g ai/ha) | Plant response rating, Chickweed ([3]; 125 g ai/ha)
0: Plant response rating (scale 0 to 100), Oat, Wild [1] | Oat, Wild plant response rating [1, 18] | Oat, Wild plant response rating [1, 19] | Plant response rating (scale 0 to 100), Kochia [2] | Kochia plant response rating [2] | Plant response rating (scale 0 to 100), Chickweed [3] | Chickweed plant response rating [3] | Plant response rating, Corn [4, 21] | Plant response rating, Wheat [10, 21] | Plant response rating, Wheat [10, 22] | Plant response rating, Ryegrass, Italian [11, 21] | Plant response rating, Ryegrass, Italian [11, 22] | Ryegrass, Italian plant response rating [11, 23] | Plant response rating, Ryegrass, Italian [11, 24] | Ducksalad plant response rating [12] | Sedge, Umbrella plant response rating [13] | Rice plant response rating [14] | Barnyardgrass plant response rating [15] | Plant response rating, Blackgrass [17, 21]

Source: patent US10131652B2, “Pyrimidinyloxy benzene derivatives as herbicides” (E. I. DU PONT DE NEMOURS AND COMPANY, priority 2014, dated 2018)
